The numbers were not newly measured in patent US4665052A, “Renin inhibitors containing homophe^8 and a C-terminal amide cycle” (Merck & Co., Inc., priority 1984, dated 1987), which cites them from elsewhere.

One data set relates to hog renin. The conditions noted are these: after injection of hog renin into nephrectomized rats; Gross et al. 1971.
Data set [1] relates to aspartyl proteases such as pepsin, cathepsin D, and renin. The settings on record: selectivity.

Take pepstatin: the “blood pressure in vivo” value in the data set on hog renin was “reduce blood pressure in vivo”. In addition, the “inhibition of other acid proteases in addition to renin” value in data set [1] is “inhibition of a variety of other acid proteases in addition to renin”.
